From patent publication US20090036355A1, “Antisense Modulation of PTP1B Expression” (priority 2004, published 2009)
Like-named read-outs stand apart in the source and are kept apart here.

What was measured:
[1] = tested on: ZDF rats; assay: ZDF rats: comparison to rosiglitazone and metformin (glucose, HbA1c, meal tolerance, body weight); format: in vivo, rat
Procedure: A saline treated group of lean rats was also included in the study. Treatment with all drugs was initiated before the rats became frankly diabetic, which occurs at about 8 weeks of age. Plasma glucose levels were measured 3 and 5 weeks after treatment initiation. Body weight was measured once every week; in addition, HbA, levels were measured at the end of the study by HPLC. A meal tolerance test was also performed after 4 weeks of treatment.
At the end of 5 weeks, some rats were sacrificed and the liver and epididymal fat pads were removed. The rest of the animals (n=4/group) were examined for changes in plasma glucose levels after cessation of treatment. Glucose measurements during the recovery phase were made 10 days and 5 weeks after stopping treatment. Tissue extracts were subjected to Western blot analysis to measure changes in PTP1B protein levels.

[2] = AST/ALT and plasma cholesterol in aged ZDF rats; conditions: weeks 1, 2, 3, 4 and 5
[3] = Combination with metformin in ZDF rats: hypoglycemia, AST/ALT, lipids, plasma lactate; format: in vivo, rat; conditions: after 4 weeks of treatment, metformin 100, 300 or 500 mg/kg per day, ISIS 113715 12.5 mg/kg twice a week
Procedure: 500 mg/kg is the maximally effective dose that can be tolerated by these rats.
There was no significant change in AST/ALT, plasma triglyceride or plasma cholesterol levels in any animal group. Because of the risk of lactic acidosis associated with metformin treatment, plasma lactate levels were measured.

[4] = tested on: ZDF rats; assay: Combination with metformin in ZDF rats: plasma glucose; format: in vivo, rat; conditions: 4 weeks, metformin 100, 300 or 500 mg/kg per day, ISIS 113715 12.5 mg/kg twice a week
Procedure: 500 mg/kg is the maximally effective dose that can be tolerated by these rats. Plasma glucose was measured at week 0 (before treatment) and after weeks 1, 2 and 4 of treatment.

[5] = tested on: PTP1B; assay: PTP1B protein in HEPG2 cells (Western blot); format: cell-based, human; conditions: 150 nM
Procedure: (§1) There is a high degree of homology between PTP1B and T-cell phosphatase (TC-PTPase, PTPN2), particularly in the catalytic domain. This may present problems in design of small molecule drugs specific for PTP1B. […] HEPG2 human hepatocellular liver carcinoma cells (ATCC, Manassas Va.) are routinely maintained in minimum essential medium (Eagle) with 2 mM L-glutamine and Earle's BSS adjusted to contain 1.5 g/L sodium bicarbonate, 0.1 mM non-essential amino acids, and 1.0 mM sodium pyruvate, […]; fetal bovine serum.
(§2) Levels of PTP1B and TC-PTPase protein were measured by Western blot using mouse monoclonal antibodies to PTP1B (AB-1) and TC-PTPase (AB-1) (CalBiochem/Oncogene sciences, EMD Biosciences, Inc., San Diego Calif.), which specifically identified human target proteins and were used at 0.25 ug/ml. Results were expressed as percent of control (no oligo treatment).

[6] = tested on: PTP1B protein; assay: PTP1B protein levels in ZDF rats (Western blot); format: in vivo, rat; conditions: compared to saline-treated animals
Procedure: (§3) ZDF/GmiCrl-fa/fa (ZDF) male rats were purchased from Charles River Laboratories (Wilmington, Mass., USA). Six week old ZDF male rats were injected intraperitoneally with oligonucleotides at a dose of 25 mg/kg two times per week for four weeks. […] Saline-injected animals also serve as controls.
PTP1B protein levels were measured by Western blot analysis.

[7] = tested on: ZDF rats; assay: Intraperitoneal glucose tolerance test (IPGTT) in ZDF rats; format: in vivo, rat
Procedure: as §3
An intraperitoneal glucose tolerance test (IPGTT) was also performed. Rats received intraperitoneal injections of glucose, and the blood glucose and insulin levels are measured before the glucose challenge and at intervals over 2 hours. The blood glucose levels (in mg/dL) are shown below in Table 1: […]

[8] = rat, in vivo
[9] = tested on: T-cell phosphatase (TC-PTPase, PTPN2); assay: TC-PTPase protein in HEPG2 cells (Western blot); format: cell-based, human; conditions: 150 nM
Procedure: as §1, §2

[10] = tested on: ZDF rats; assay: Fed plasma glucose in Zucker diabetic fatty (ZDF) rats; format: in vivo, rat
Source text: The leptin receptor deficient Zucker diabetic fatty (ZDF) rat is another useful model for the investigation of type 2 diabetes. Diabetes develops spontaneously in these male rats at ages 8-10 weeks, and is associated with hyperphagia, polyuria, polydipsia, and impaired weight gain, symptoms which parallel the clinical symptoms of diabetes (Phillips M S, et al., 1996, Nat Genet. 13, 18-19).
as §3

## CN(CCOc1ccc(CC2SC(=O)NC2=O)cc1)c1ccccn1 (stereo not drawn) [Rosiglitazone]
[1]; 10 day washout, saline 310
  Blood glucose (mg/dL) (approx.): ~260 mg/dL
[1]; 31 day washout, saline 320
  Blood glucose (mg/dL) (approx.): ~270 mg/dL
[1]; Pre-treatment, ISIS 113715 50 mg/kg/week IP, rosiglitazone 10 mg/kg/day, metformin 800 mg/kg/day orally, saline 140
  Blood glucose (mg/dL) (approx.): ~140 mg/dL
[1]; Week 3 of dosing, saline 320
  Blood glucose (mg/dL) (approx.): ~110 mg/dL
[2]
  AST/ALT and plasma cholesterol levels: no significant effects

## CN(C)C(=N)N=C(N)N [Metformin]
[3]
  plasma lactate levels: dose-dependent increase
[4]
  effect on blood glucose over time: lost over time
[1]; 31 day washout, saline 320
  Blood glucose (mg/dL) (approx.): ~330 mg/dL
[1]; Week 3 of dosing, saline 320
  Blood glucose (mg/dL) (approx.): ~180 mg/dL
[1]; after treatment
  body weight: remained unchanged

## ISIS 141923: CCTTCCCTGAAGGTTCCTCC; SEQ ID NO: 20, six-mismatch control of ISIS 113715, negative oligonucleotide control (chemistry not given here)
[5]
  PTP1B protein levels reduced by: reduced neither
[6]
  PTP1B protein levels decreased by: 10%
[7]; 0 min
  Blood glucose after IPGTT, Glucose mg/dL ± SEM: 330 ± 39 mg/dL
  Insulin excursion after IPGTT, Insulin (ng/ml ± SEM): 2.2 ± .30 ng/mL
[7]; 5 min
  Blood glucose after IPGTT, Glucose mg/dL ± SEM: 543 ± 43 mg/dL
  Insulin excursion after IPGTT, Insulin (ng/ml ± SEM): 2.3 ± .84 ng/mL
[7]; 15 min
  Blood glucose after IPGTT, Glucose mg/dL ± SEM: 703 ± 60 mg/dL
  Insulin excursion after IPGTT, Insulin (ng/ml ± SEM): 4.0 ± .22 ng/mL
[7]; 30 min
  Blood glucose after IPGTT, Glucose mg/dL ± SEM: 791 ± 52 mg/dL
  Insulin excursion after IPGTT, Insulin (ng/ml ± SEM): 4.2 ± .37 ng/mL
[7]; 60 min
  Blood glucose after IPGTT, Glucose mg/dL ± SEM: 705 ± 51 mg/dL
  Insulin excursion after IPGTT, Insulin (ng/ml ± SEM): 2.4 ± .66 ng/mL
[7]; 120 min
  Blood glucose after IPGTT, Glucose mg/dL ± SEM: 594 ± 28 mg/dL
  Insulin excursion after IPGTT, Insulin (ng/ml ± SEM): 1.7 ± .60 ng/mL
[7]; saline approximately 300
  Insulin AUC after IPGTT: ~320
[7]; saline approximately 72,000
  Glucose excursion (AUC) after IPGTT: approximately 80,000
[8]
  AST/ALT and plasma cholesterol levels: no significant effects
[9]
  TC-PTPase levels reduced by: reduced neither
[10]; 25 mg/kg i.p. two times per week, week 0, saline 302±44
  fed plasma glucose levels: approximately 306±59 mg/dL
[10]; week 1, saline 400±17
  fed plasma glucose levels: ~391 ± 35 mg/dL
[10]; week 2, saline 441±13
  fed plasma glucose levels: ~402 ± 37 mg/dL
[10]; week 3, saline 453±26
  fed plasma glucose levels: ~411 ± 27 mg/dL
[10]; week 4, saline 425±10
  fed plasma glucose levels: ~392 ± 11 mg/dL
